Test results: patent US10959970B2, “Methods of treating hair related conditions” (Nogra Pharma Limited, priority 2009, dated 2021)

What was measured:
K19 = K19 cells in treated hair follicles and skin; format: cell-based, human; conditions: for K19 cells: lower hair follicle, FIG. 6
Method: (§1) A Philpott model test system of microdissected organ-cultured hair follicles is used. Hair follicles and skin punches were divided into 4 groups (3 HFs/well) incubated with the test substance Compound ‘A in different concentrations for 6 days. On day 0, microdissection measurements of hair length are conducted. On day 1, the medium is changed and addition of compound A (with measurement of hair length). On day 3, the medium is changed and compound a is added (with measurement of hair length). On day 6, hair length is measured and embedding occurs.

[1] = tested on: human hair matrix keratinocytes; assay: Ki-67/Tunel fluorescent staining of hair follicles; format: cell-based; conditions: high doses of compound A; FIG. 4
Method: as §1
Ki-67/Tunel staining was also conduct on the hair follicles using fluorescent staining.

IL-6 mRNA = assay: Inhibition of IL-6 mRNA induction by IFN-γ in keratinocytes (Real time RT-PCR); format: cell-based, human; conditions: IFN-γ 30 ng/ml, 0.01-0.1-0.5 mM, 6 h, FIG. 9
Method: Analysis of the inhibition by compound A of the mRNA induction of the proinflammatory cytokine IL-6 by IFN-γ was done through Real time RT-PCR. The keratinocytes were plated in dishes of 6 cm/Ø.
At 80% confluence, the cells were treated with IFN-γ (30 ng/ml) in presence of compound A at the three concentrations (0.01-0.1-0.5 mM) for 6 h.

sebocytes [2] = assay: Nile Red assay of sebogenesis induced by linoleic acid and testosterone in sebocytes; format: cell-based, human; conditions: for sebogenesis (intracellular lipids, Nile Red) induced by LA and LA+TST: TST (20 nM), 24 h
Method: Analysis of the inhibition by (compound A) of sebogenesis induced by treatment with linoleic acid (LA) and with testosterone (TST) was evaluated by spectrofluorimetry, using Nile Red as selective marker of intracellular lipids (Nile Red Assay). The sebocytes were plated in wells of a 24-well plate. Next day, they were deprived of serum (2%) and after 24 h they were stimulated, for another 24 h, with LA (10^-4M), TST (20 nM) in presence or in absence of A (1 mM). At the end of the treatment, the sebocytes were stained with Nile Red. The quantitative analysis was done by spectrofluorimetry, which made it possible to distinguish between neutral lipids and polar lipids based on the different wavelength of excitation and emission. […] (FIG. 13).
Analysis of the inhibition by compound A of sebogenesis induced by treatment with linoleic acid (LA) and with testosterone (TST) was evaluated by spectrofluorimetry, using Nile Red as selective marker of intracellular lipids (Nile Red Assay). The sebocytes were plated in wells of a 24-well plate. Next day, they were deprived of serum (2%) and after 24 h they were stimulated, for another 24 h, with LA (10^-4M), TST (20 nM) in presence or in absence of compound A (1 mM). At the end of the treatment, the sebocytes were stained with Nile Red. The quantitative analysis was done by spectrofluorimetry, which made it possible to distinguish between neutral lipids and polar lipids based on the different wavelength of excitation and emission.

TNF-alpha mRNA = assay: Inhibition of TNF-alpha mRNA induction by H2O2 in keratinocytes (Real time RT-PCR); format: cell-based, human; conditions: H2O2 300 μM, 6 h, FIG. 8
Method: Analysis of the inhibition of compound A of the mRNA induction of the proinflammatory cytokine TNF-alpha by H2O2 was carried out by Real time RT-PCR. The keratinocytes were plated in dishes of 6 cm/Ø. At 80% confluence, the cells were treated with H2O2 (300 μM) in presence of Compound A at the three concentrations (0.01-0.1-0.5 mM) for 6 h. At the end of the treatment, the cells were lysed in a lysis buffer and subjected to isolation and subsequent retrotranscription of the RNA. […] (FIG. 8)

[3] = tested on: human primary keratinocytes; assay: MTT test on human primary keratinocytes; format: cell-based; conditions: 0.1-1-2 mM, 24 and 48 h, FIG. 7
Method: To assess the possible toxic or cytostatic effect of the substances under study, a spectrophotometric test (MTT) was carried out. The human primary keratinocytes, isolated from skin biopsies, were plated in wells of a 24-well plate in suitable medium with addition of antibiotics, calcium, and specific growth factors. At around 70% confluence, the cells were exposed to the presence of Compound A, at various concentrations (0.1-1-2 mM), for 24 and 48 h in suitable medium with addition of antibiotics, calcium, but no growth factors. This culture condition was done for all the subsequent experiments. At the end of the treatment, the MTT test was done.

sebocytes [4] = assay: GC-MS assay of fatty acids and squalene in lipid extract of sebocytes stimulated with LA and TST; format: cell-based, human; conditions: sebocyte lipid extract, A 1 mM
Method: In order to evaluate in greater detail the inhibition by Compound A of sebogenesis induced by LA and TST, assays were performed on the lipid extract of the sebocytes using gas chromatography coupled with mass spectrometry (GC-MS). The sebocytes were treated by the scheme described for the Nile Red assay. At the end of the treatment, the cells were removed and then the lipid extraction was done by using organic solvents. One part of the extract was used to analyze the fatty acid composition, while the other part was used for the determination of the quantity of squalene, a lipid characteristic of sebum. […] (FIG. 14B)

IL-6 = assay: Inhibition of IL-6 protein induction by LPS in keratinocytes (ELISA); format: cell-based, human; conditions: LPS 10 μg/ml, 0.01-0.1-0.5 mM, 24 h, supernatant ELISA, FIG. 11
Method: Analysis of the inhibition by Compound A of the protein induction of IL-6 by LPS (lipopolysaccharide) was done with the ELISA kit. The keratinocytes were plated in wells of a 24-well plate. At 80% confluence, the cells were treated with LPS (10 μg/ml) in presence of compound A at the three concentrations (0.01-0.1-0.5 mM) for 24 h. At the end of the treatment, the supernatant was decanted, centrifuged so as to remove any cell detritus, and kept at −80° C. until the time of the analysis. The quantity of IL-6 present in the supernatant was normalized by the protein concentration of the sample itself.

sebocytes [5] = assay: MTT test on human sebocytes; format: cell-based; conditions: 0.1-0.5-1-2 mM, 24 and 48 h, FIG. 12
Method: To assess the possible toxic or cytostatic effect of the substances under study, a spectrophotometric test (MTT) was carried out. The sebocytes were plated in wells of a 24-well plate in suitable medium with addition of antibiotics, calcium and EGF. At roughly 70% confluence, the cells were exposed to the presence of compound A, in various concentrations (0.1-0.5-1-2 mM), for 24 and 48 h. At the end of the treatment, the MTT test was performed. […] (FIG. 12)

K15 = K15 expression in treated hair follicles and skin; format: cell-based, human; conditions: FIG. 5
Method: as §1

[6] = tested on: microdissected organ-cultured hair follicles; assay: Hair shaft elongation in Philpott model of microdissected organ-cultured hair follicles; format: cell-based, human; conditions: 6 days, lower dose of compound A, FIG. 1
Method: as §1

[7] = tested on: human hair follicle pigmentation; assay: Fontana-Masson histomorphometry/melanin staining on hair follicle cryosections; format: cell-based; conditions: FIG. 2
Method: as §1

## CO[C@H](Cc1ccc(NC(C)=O)cc1)C(=O)O [Compound A, N-acetyl-(R)-(−)-3-(4-aminophenyl)-2-methoxypropionic acid]
K19; 10× higher concentration
  K19 cells: down regulation
K19; lower concentration
  K19 cells: significant upregulation
K19; skin
  K19 expression: no measurable expression
[1]
  proliferation and apoptosis of hair matrix keratinocytes (Ki67/Tunel immunohistomorphometry): stimulates both proliferation and apoptosis
IL-6 mRNA
  dose dependence of inhibition of IL-6 mRNA expression induced by IFN-γ: does not appear to be dose-dependent
  mRNA expression of IL-6 induced by IFN-γ: inhibit the expression of the inflammatory cytokine
Sebocytes [2]; Example 9, LA (10^-4M), A 1 mM, FIG. 13
  sebogenesis (intracellular lipids, Nile Red) induced by LA and LA+TST: able to reduce the lipidogenic stimulus
Sebocytes [2]; Example 11, LA (10^-4M), compound A 1 mM, FIG. 15
  sebogenesis (intracellular lipids, Nile Red) induced by LA and LA+TST: able to reduce the lipidogenic stimulus
Sebocytes [2]; Example 11, Nile Red assay, FIG. 15
  influence of the times of treatment on reduction of the lipidogenic stimulus: No differences were observed
TNF-alpha mRNA; higher dose (0.5 mM), effect similar to troglitazone (Tg)
  expression of the mRNA of TNF-α induced by H2O2: complete inhibition
TNF-alpha mRNA; two higher doses (0.1 mM; 0.5 mM)
  expression of the mRNA of TNF-α induced by H2O2: able to inhibit
[3]
  cellular vitality (MTT): did not show any effect on cellular vitality
Sebocytes [4]; FIG. 14A
  fatty acid assay of lipidogenic stimulus induced by LA and LA+TST: reduced
Sebocytes [4]; FIG. 14B
  squalene analysis of lipidogenic stimulus induced by LA and LA+TST: confirmed
IL-6
  protein expression of IL-6 induced by LPS: inhibit, in dose-dependent manner
Sebocytes [5]
  cell vitality (MTT): no effects on cell vitality
K15; lower hair follicle, lower doses of compound A
  K15 expression: significant upregulation
K15; treated skin
  K15 expression: no measurable expression
[6]
  hair shaft elongation: stimulates hair shaft elongating
[7]
  human hair follicle pigmentation (melanin staining): stimulation of human hair follicle pigmentation
